# Reference: US10071098B2, “Compositions useful for treating herpes simplex labialis and/or herpes esophagitis, and methods using same” (DREXEL UNIVERSITY, priority 2014, dated 2018)
# Legend:
# HSV-1 strain KOS [1] = assay: HSV-1 replication in OKF6 cells (qPCR genome copy number and viral yield); type: cell-based; details: for HSV-1 replication over time course of lytic infection (genome copy number, viral yield): MOI=0.1, FIGS. 8A-8B; for HSV-1 replication as measured by qPCR and viral yield, dose dependence: MOI=0.1, analysis at 20 hours post infection, FIGS. 7A-7C; for effect on reducing HSV-1 replication when combined with acyclovir: low dose of inhibitor combined with low doses of acyclovir, MOI=0.1, FIGS. 11A-11B
# Experimental: (§1) All cells were cultured at 37° C. and 5% CO2 and supplemented with 100 U/mL penicillin and 100 U/mL streptomycin. OKF6/TERT2 human oral mucosal keratinocyte cells were cultured in GIBCO Keratinocyte serum free medium (K-sfm) supplemented with bovine pituitary extract, epidermal growth factor, and calcium chloride (Life Technologies Carlsbad, Calif.). These cells are immortalized by expression of hTERT (Dickson, et al., 2000, Mol. Cell. Biol. 20(4):1436-1447). EPC2 human esophageal epithelial cells were cultured in K-sfm (Carlsbad, Calif.). KOS strain (Smith, Proc. Soc. Exp. Biol. Med. Soc. Exp. Biol. Med. 115:814-816) of HSV-1 was used in all infections. All viral stocks were titered on CV-1 monolayers.
# (§2) Subconfluent monolayers of cells were grown in six-well plates. Drug treatments were administered 60 minutes prior to infection and continued for the entire duration of each experiment. Infections with KOS strain of HSV-1 were carried out in six-well plates in a 200 μL inoculum volume at 37° C. for 1 hour with intermittent rocking. The cells were then rinsed and overlaid with fresh medium.
# (§3) Unless indicated otherwise, KU-55933 (Batch No. 5, 99.7% purity; Tocris Bioscience, Bristol, UK) and Chk2 Inhibitor II (Sigma-Aldrich, St. Louis, Mo.) were used at 10 μM final concentration, phosphonoacetic acid (PAA) at 400 μg/mL (Sigma-Aldrich, St. Louis, Mo.), and acyclovir at 50 μg/mL (Sigma-Aldrich). KU-55933 and Chk2 Inhibitor II were dissolved in dimethyl sulfoxide (DMSO), and the final concentration of DMSO for KU-55933, Chk2 Inhibitor II, and mock treatments for all in vitro experiments was 0.1%.
# (§4) Viral genome replication and transcription were measured by quantitative PCR (qPCR). Total DNA and RNA from infected cells were isolated using the DNeasy Blood & Tissue Kit and the RNeasy Mini Kit, respectively (QIAGEN, Hilden, Germany). RNA was converted to cDNA using qScript (Quanta BioSciences, Gaithersburg, Md.). Real-time qPCR was performed with SYBR Green (Bio-Rad, Hercules, Calif.). Target primers for UL30 (DNA polymerase catalytic subunit) and reference primers for glyceraldehyde 3-phosphate dehydrogenase (GAPDH) were used to measure genome replication. Transcription of the three gene families was measured with primers for RL2 (ICP0), UL30 (DNA polymerase catalytic subunit), UL23 (thymidine kinase), and UL44 (gC), with reference primers for the 18S ribosomal RNA (rRNA).
# HSV-1 strain KOS [2] = assay: Protein synthesis of HSV-1 factors in infected OKF6 cells (Western blot); type: cell-based; details: for protein synthesis of HSV-1 early gene ICP8 / protein synthesis of HSV-1 immediate early gene ICP0 / protein synthesis of HSV-1 leaky-late gene gB / protein synthesis of HSV-1 true-late gene gC: MOI=5, FIGS. 9A-9B; for gC level, inhibitor applied before infection or up to 1 hour post infection / gC level, inhibitor applied between 2 to 3 hours post infection: MOI=5, FIGS. 10A-10B; for gC level, inhibitor applied 4 hours post infection: MOI=5, compared to wild type infection, FIGS. 10A-10B
# Experimental: as §1
# Subconfluent monolayers of cells were grown in six-well plates. […] Infections with KOS strain of HSV-1 were carried out in six-well plates in a 200 μL inoculum volume at 37° C. for 1 hour with intermittent rocking. The cells were then rinsed and overlaid with fresh medium.
# as §3
# Standard protocol was followed for Western blot analysis. Cell lysates were collected in 200 μL Laemmli buffer, vortexed, and boiled at 95° C. for 5 minutes. Protein concentrations were measured by bicinchoninic acid (BCA) assay. SDS-PAGE was followed by transfer onto a polyvinylidene difluoride (PVDF) membrane, which was then blocked in 5% BSA. Primary antibodies against the following proteins were used: ICP0 (mouse monoclonal; Virusys Corporation, Taneytown, Md.), ICP4 and nucleolin (both mouse monoclonal; Santa Cruz Biotechnology, Santa Cruz, Calif.), ICP8 (rabbit polyclonal), glycoprotein B and C (mouse monoclonal and rabbit polyclonal, respectively), ATM and pATM S1981 (rabbit polyclonal and mouse monoclonal, respectively; Rockland), Chk2 and pChk2 T68 (rabbit polyclonal and mouse monoclonal, respectively; Cell Signaling). Blots were stained with secondary antibodies and visualized with the Odyssey near-infrared system (LI-COR, Lincoln, Nebr.).
# HSV-1 strain KOS [3] = assay: Transcription of HSV-1 genes in infected OKF6 cells (qPCR); type: cell-based; details: for effect on viral early factor thymidine kinase: MOI=0.1, FIGS. 9C-9E; for transcription of true-late gene gC: qPCR, MOI=0.1, FIG. 9E
# Experimental: as §1, §2, §3, §4
# [4] = tested on: acyclovir-resistant strain of HSV-1, dlspTK; assay: Replication of acyclovir-resistant HSV-1 in OKF6 cells; type: cell-based; details: MOI=0.1, FIGS. 12A-12B
# HSV-1 = assay: In vivo model of HSV-1 lip infection (herpes simplex labialis) in mice; details: BALB/c mice infected on the lower lip; applied every 4 hours for first 12 hours, then every 8 hours for 5 days; FIGS. 13A-13B
# Experimental: KU-55933 and Chk2 Inhibitor II were also efficacious at reducing HSV-1 in an in vivo model of infection (FIGS. 13A-13B). BALB/c mice were infected with HSV-1 on the lower lip, and KU-55933 or Chk2 Inhibitor II was applied every 4 hours for the first 12 hours post infection followed by treatments every 8 hours for the next 5 days. The mice were scored based on the severity of the symptoms, and tracked over the course of infection.
# ATM = ATM activation in HSV-1-infected OKF6 cells (Western blot); type: cell-based, human; details: MOI=5.0, FIG. 6
# Experimental: All cells were cultured at 37° C. and 5% CO2 and supplemented with 100 U/mL penicillin and 100 U/mL streptomycin. OKF6/TERT2 human oral mucosal keratinocyte cells were cultured in GIBCO Keratinocyte serum free medium (K-sfm) supplemented with bovine pituitary extract, epidermal growth factor, and calcium chloride (Life Technologies Carlsbad, Calif.). […] KOS strain (Smith, Proc. Soc. Exp. Biol. Med. Soc. Exp. Biol. Med. 115:814-816) of HSV-1 was used in all infections. All viral stocks were titered on CV-1 monolayers.
# Unless indicated otherwise, KU-55933 (Batch No. 5, 99.7% purity; Tocris Bioscience, Bristol, UK) and Chk2 Inhibitor II (Sigma-Aldrich, St. Louis, Mo.) were used at 10 μM final concentration, phosphonoacetic acid (PAA) at 400 μg/mL (Sigma-Aldrich, St. Louis, Mo.), and acyclovir at 50 μg/mL (Sigma-Aldrich). […]
# Standard protocol was followed for Western blot analysis. […] Protein concentrations were measured by bicinchoninic acid (BCA) assay. […]
SMILES,"HSV-1 replication over time course of lytic infection (genome copy number, viral yield) (HSV-1 strain KOS [1])","HSV-1 replication as measured by qPCR and viral yield, dose dependence (HSV-1 strain KOS [1])",effect on reducing HSV-1 replication when combined with acyclovir (HSV-1 strain KOS [1]),protein synthesis of HSV-1 early gene ICP8 (HSV-1 strain KOS [2]),protein synthesis of HSV-1 immediate early gene ICP0 (HSV-1 strain KOS [2]),protein synthesis of HSV-1 leaky-late gene gB (HSV-1 strain KOS [2]),protein synthesis of HSV-1 true-late gene gC (HSV-1 strain KOS [2]),"gC level, inhibitor applied before infection or up to 1 hour post infection (HSV-1 strain KOS [2])","gC level, inhibitor applied between 2 to 3 hours post infection (HSV-1 strain KOS [2])","gC level, inhibitor applied 4 hours post infection (HSV-1 strain KOS [2])",effect on viral early factor thymidine kinase (HSV-1 strain KOS [3]),transcription of true-late gene gC (HSV-1 strain KOS [3]),replication (genome copy numbers) of acyclovir-resistant HSV-1 strain dlspTK [4],severity of symptoms (score) during the time course of infection (HSV-1),ATM activation (ATM)
"NC(=O)c1ccc2[nH]c(-c3ccc(Oc4ccc(Cl)cc4)cc3)nc2c1 [Chk2 Inhibitor II, 2-(4-(4-chlorophenoxy)phenyl)-1H-benzimidazole-5-carboxamide]",reduced HSV-1 replication throughout the entire time course of lytic infection,reduced HSV-1 replication in a dose dependent manner,additive to greater-than-additive effect,no impact,no impact,no impact,large reduction,large reduction of gC,Low levels of gC were produced,no impact on gC levels,minimal effect,prevent the transcription,greatly reduced replication,statistically significant decrease in the severity of symptoms,–
"O=c1cc(-c2cccc3c2Sc2ccccc2S3)oc(N2CCOCC2)c1 [KU-55933, 2-(morpholin-4-yl)-6-(thianthren-1-yl)-pyran-4-one]",reduced HSV-1 replication throughout the entire time course of lytic infection,reduced HSV-1 replication in a dose dependent manner,additive to greater-than-additive effect,no impact,no impact,no impact,large reduction,large reduction of gC,Low levels of gC were produced,no impact on gC levels,minimal effect,reduction,greatly reduced replication,statistically significant decrease in the severity of symptoms,inhibited ATM activation
